Assay results taken from ChEMBL document CHEMBL5291721, “A preclinical secondary pharmacology resource illuminates target-adverse drug reaction associations of marketed drugs” (Nat Commun, 2023).

How the values were obtained:
D(3) dopamine receptor = D(3) dopamine receptor (Homo sapiens, UniProt P35462)
Vasopressin V2 receptor = Vasopressin V2 receptor (Homo sapiens, UniProt P30518)
[1] = target: T1, 5-hydroxytryptamine receptor 2B (Homo sapiens, UniProt P41595); format: functional, cell-based
Endothelin-1 receptor = target: T2, Endothelin-1 receptor (Homo sapiens, UniProt P25101)
T2 sequence (P25101 whole entry): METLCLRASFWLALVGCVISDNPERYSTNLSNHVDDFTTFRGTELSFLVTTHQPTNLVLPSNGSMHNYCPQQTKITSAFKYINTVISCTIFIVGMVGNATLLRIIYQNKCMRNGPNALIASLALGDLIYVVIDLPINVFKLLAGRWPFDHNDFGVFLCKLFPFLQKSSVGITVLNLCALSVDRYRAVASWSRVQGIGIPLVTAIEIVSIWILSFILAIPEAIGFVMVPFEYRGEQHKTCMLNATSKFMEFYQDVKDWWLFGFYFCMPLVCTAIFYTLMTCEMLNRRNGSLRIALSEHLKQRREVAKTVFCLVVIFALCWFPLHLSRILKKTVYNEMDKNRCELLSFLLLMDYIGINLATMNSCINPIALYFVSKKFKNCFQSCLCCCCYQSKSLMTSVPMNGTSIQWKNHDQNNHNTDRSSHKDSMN

[2] = target: T3, Amine oxidase [flavin-containing] A (Homo sapiens, UniProt P21397); format: functional
T3 sequence (P21397 whole entry): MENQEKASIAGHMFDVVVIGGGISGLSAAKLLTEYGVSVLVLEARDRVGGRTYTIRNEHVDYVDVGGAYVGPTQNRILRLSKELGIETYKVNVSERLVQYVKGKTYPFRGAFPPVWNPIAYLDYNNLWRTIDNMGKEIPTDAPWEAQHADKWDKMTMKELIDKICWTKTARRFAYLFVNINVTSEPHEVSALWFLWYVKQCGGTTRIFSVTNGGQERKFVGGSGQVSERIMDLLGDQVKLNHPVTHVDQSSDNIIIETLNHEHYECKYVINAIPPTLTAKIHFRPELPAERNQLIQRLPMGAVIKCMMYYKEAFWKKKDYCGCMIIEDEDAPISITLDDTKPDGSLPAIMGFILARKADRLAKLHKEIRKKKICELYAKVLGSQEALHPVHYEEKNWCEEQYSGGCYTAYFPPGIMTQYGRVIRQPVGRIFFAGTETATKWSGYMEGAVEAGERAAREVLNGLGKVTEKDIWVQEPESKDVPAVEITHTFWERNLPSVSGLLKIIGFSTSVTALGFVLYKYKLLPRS

[3] = target: T1, 5-hydroxytryptamine receptor 2B; format: functional, cell-based; remark: listed apart in the source
Mu-type opioid receptor = Mu-type opioid receptor (Homo sapiens, UniProt P35372)
Glucocorticoid receptor = target: T4, Glucocorticoid receptor (Homo sapiens, UniProt P04150)
T4 sequence (P04150 whole entry): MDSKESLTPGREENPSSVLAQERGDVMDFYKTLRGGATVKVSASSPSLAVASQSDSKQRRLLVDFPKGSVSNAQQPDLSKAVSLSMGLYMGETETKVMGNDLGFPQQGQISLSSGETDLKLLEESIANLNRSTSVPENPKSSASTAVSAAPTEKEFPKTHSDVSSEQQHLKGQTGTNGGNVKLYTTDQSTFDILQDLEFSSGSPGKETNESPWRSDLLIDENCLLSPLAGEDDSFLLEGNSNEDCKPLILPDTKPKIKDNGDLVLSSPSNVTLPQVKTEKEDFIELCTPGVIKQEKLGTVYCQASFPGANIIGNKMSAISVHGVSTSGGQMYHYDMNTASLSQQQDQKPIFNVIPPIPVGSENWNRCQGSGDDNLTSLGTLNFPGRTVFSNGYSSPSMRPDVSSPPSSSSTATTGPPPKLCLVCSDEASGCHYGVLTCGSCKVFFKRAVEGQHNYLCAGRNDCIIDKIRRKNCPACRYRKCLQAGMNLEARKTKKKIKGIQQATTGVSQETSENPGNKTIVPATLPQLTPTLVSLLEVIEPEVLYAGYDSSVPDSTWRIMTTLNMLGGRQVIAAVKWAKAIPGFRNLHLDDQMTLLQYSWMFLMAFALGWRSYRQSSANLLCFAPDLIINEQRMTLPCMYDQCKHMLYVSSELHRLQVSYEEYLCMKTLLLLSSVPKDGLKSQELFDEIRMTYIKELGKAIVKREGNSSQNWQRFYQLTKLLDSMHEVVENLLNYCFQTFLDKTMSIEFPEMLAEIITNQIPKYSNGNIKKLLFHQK

[4] = target: Muscarinic acetylcholine receptor M3 (Homo sapiens, UniProt P20309)
Estrogen receptor = target: T5, Estrogen receptor (Homo sapiens, UniProt P03372)
T5 sequence (P03372 whole entry): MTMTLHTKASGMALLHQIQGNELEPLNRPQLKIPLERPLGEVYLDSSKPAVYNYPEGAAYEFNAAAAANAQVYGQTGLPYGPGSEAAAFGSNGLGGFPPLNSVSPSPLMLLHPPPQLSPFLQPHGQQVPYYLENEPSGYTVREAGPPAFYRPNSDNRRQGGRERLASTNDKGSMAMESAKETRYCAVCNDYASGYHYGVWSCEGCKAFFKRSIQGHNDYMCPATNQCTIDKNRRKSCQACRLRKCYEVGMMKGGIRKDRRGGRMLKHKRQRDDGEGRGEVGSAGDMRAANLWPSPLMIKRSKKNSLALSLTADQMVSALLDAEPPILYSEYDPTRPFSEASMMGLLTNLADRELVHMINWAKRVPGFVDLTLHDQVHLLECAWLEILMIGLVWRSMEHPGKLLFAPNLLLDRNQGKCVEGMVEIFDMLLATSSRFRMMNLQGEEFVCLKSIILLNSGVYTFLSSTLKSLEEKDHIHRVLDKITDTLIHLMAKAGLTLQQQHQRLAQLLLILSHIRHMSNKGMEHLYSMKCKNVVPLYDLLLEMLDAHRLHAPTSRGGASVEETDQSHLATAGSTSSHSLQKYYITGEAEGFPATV
Further: assay procedure not described here.

T1 sequence (P41595 whole entry): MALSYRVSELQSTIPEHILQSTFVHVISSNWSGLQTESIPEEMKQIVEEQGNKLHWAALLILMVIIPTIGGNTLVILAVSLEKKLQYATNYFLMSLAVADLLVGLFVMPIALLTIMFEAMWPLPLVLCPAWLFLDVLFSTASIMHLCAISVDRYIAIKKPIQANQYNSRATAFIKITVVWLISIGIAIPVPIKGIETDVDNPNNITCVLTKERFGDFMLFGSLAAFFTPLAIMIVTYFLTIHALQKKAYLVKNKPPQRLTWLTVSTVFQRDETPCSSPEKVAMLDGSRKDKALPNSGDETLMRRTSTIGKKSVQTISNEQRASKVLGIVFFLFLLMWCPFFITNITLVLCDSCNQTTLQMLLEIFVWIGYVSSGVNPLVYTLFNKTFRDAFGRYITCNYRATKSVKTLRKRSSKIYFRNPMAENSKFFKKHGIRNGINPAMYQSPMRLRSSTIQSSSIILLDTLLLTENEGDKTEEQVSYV
Muscarinic acetylcholine receptor M3, sequence (P20309 whole entry): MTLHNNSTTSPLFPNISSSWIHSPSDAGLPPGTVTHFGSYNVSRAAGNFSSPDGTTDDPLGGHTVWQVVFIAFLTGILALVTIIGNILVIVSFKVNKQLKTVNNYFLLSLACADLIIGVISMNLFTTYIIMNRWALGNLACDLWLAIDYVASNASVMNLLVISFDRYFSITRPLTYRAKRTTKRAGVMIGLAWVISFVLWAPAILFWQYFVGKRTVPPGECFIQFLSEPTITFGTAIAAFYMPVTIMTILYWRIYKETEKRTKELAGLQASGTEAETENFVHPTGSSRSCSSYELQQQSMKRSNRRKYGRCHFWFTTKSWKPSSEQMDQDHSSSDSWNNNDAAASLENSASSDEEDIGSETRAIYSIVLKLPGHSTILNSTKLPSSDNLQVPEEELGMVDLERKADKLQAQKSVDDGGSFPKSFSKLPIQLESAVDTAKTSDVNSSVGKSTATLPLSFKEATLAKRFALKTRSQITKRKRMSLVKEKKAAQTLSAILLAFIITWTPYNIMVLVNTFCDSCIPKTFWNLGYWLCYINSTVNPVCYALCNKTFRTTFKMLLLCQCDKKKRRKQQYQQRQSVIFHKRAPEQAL
Mu-type opioid receptor, sequence (P35372 whole entry): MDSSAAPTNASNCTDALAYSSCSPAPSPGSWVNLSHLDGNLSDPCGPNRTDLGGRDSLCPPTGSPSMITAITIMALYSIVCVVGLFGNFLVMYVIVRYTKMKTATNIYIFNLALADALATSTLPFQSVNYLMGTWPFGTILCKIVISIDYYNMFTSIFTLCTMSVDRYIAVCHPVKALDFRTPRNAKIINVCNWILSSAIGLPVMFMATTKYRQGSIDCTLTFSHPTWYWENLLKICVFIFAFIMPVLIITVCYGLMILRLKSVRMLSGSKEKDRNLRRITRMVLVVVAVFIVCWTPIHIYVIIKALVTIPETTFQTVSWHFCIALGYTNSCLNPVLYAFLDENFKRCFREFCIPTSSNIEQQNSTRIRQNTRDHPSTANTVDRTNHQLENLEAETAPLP
D(3) dopamine receptor, sequence (P35462 whole entry): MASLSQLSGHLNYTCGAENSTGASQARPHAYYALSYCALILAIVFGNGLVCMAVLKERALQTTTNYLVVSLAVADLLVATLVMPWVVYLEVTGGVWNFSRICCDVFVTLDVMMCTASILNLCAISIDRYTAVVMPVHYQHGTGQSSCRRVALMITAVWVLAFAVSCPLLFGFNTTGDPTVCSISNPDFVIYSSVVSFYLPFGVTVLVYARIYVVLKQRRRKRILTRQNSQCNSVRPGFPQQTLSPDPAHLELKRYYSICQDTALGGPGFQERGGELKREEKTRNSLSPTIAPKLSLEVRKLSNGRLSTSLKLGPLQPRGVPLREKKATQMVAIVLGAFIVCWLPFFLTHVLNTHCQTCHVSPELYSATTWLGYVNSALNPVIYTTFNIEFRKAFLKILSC

| Compound | AC50 (D(3) dopamine receptor) [µM] | AC50 (Vasopressin V2 receptor) [µM] | AC50 [1] [µM] | AC50 (Endothelin-1 receptor) [µM] | AC50 [2] [µM] | AC50 [3] [µM] | AC50 (Mu-type opioid receptor) [µM] | AC50 (Glucocorticoid receptor) [µM] | AC50 [4] [µM] | AC50 (Estrogen receptor) [µM] |
| --- | --- | --- | --- | --- | --- | --- | --- | --- | --- | --- |
| CC1=C(CC(=O)O)c2cc(F)ccc2/C1=C\c1ccc([S+](C)[O-])cc1 (stereo not drawn) | > 30 | > 30 | > 10 | > 30 | > 10 | > 10 | > 30 | > 30 | – | – |
| COc1ccc(-n2nc(C(N)=O)c3c2C(=O)N(c2ccc(N4CCCCC4=O)cc2)CC3)cc1 [APIXABAN] | > 30 | > 30 | > 30 | > 30 | > 30 | > 30 | > 30 | – | > 30 | – |
| CC(NC(C)(C)C)C(=O)c1cccc(Cl)c1 (stereo not drawn) [BUPROPION] | > 10 | > 30 | > 10 | > 30 | > 10 | > 10 | > 10 | > 30 | – | – |
| CC(=O)OCC1=C(C(=O)O)N2C(=O)[C@@H](NC(=O)CSc3ccncc3)[C@H]2SC1 [CEPHAPIRIN] | > 30 | > 10 | > 10 | – | > 10 | > 10 | > 30 | > 30 | > 30 | – |
| CC1=C(C(=O)O)N2C(=O)[C@@H](NC(=O)[C@H](N)C3=CCC=CC3)[C@H]2SC1 [CEPHRADINE] | > 30 | > 30 | > 30 | > 30 | > 30 | > 30 | – | > 30 | > 30 | > 30 |
| CCCO[C@H]1[C@@H]([C@@H](COCc2ccc(Cl)cc2)OCc2ccc(Cl)cc2)OC(OCC)[C@@H]1O (stereo partly drawn) [CLOBENOSIDE] | > 30 | > 30 | > 30 | > 30 | > 30 | > 30 | – | > 30 | > 30 | > 10 |
| CCCCCCOC(=O)NC(=N)c1ccc(NCc2nc3cc(C(=O)N(CCC(=O)OCC)c4ccccn4)ccc3n2C)cc1 [DABIGATRAN ETEXILATE] | > 30 | > 30 | > 30 | > 30 | > 30 | > 30 | > 30 | – | > 30 | – |
| CCN1C(=O)NC(c2ccccc2)C1=O (stereo not drawn) [ETHOTOIN] | > 30 | > 30 | > 30 | > 30 | > 30 | > 30 | – | > 30 | > 30 | > 30 |
| Cc1ccc(S(=O)(=O)NC(=O)N[C@H]2[C@H]3CC[C@@](C)([C@H]2O)C3(C)C)cc1 [GLIBORNURIDE] | > 30 | > 30 | > 30 | > 30 | > 30 | > 30 | – | > 30 | > 30 | > 30 |
| N=C(N)NC(=O)Cc1c(Cl)cccc1Cl [GUANFACINE] | 20 | > 30 | 0.358 | – | 6.88 | – | > 30 | > 30 | – | – |
| CCC(NC(C)C)C(O)c1ccc(O)c(O)c1 (stereo not drawn) [ISOETHARINE] | > 30 | > 30 | > 30 | > 30 | > 30 | > 30 | > 30 | – | > 30 | – |
| CCC(=O)O[C@H](CC(=O)O)C[N+](C)(C)C [LEVOCARNITINE PROPIONATE] | > 30 | > 30 | > 30 | > 30 | > 30 | > 30 | – | > 30 | > 30 | > 30 |
| O=C(O)c1nn(Cc2ccc(Cl)cc2Cl)c2ccccc12 [LONIDAMINE] | > 30 | > 30 | > 30 | > 30 | > 30 | > 30 | – | > 30 | > 30 | > 30 |
| Nc1ccc(S(=O)(=O)Nc2ncccn2)cc1 [SULFADIAZINE] | > 30 | > 10 | > 10 | – | > 10 | > 10 | > 30 | – | – | – |
| CS(=O)(=O)NC(=O)CCC/C=C\C[C@H]1C(=O)C[C@@H](O)[C@@H]1/C=C/[C@@H](O)COc1ccccc1 [SULPROSTONE] | > 30 | > 30 | > 30 | > 30 | > 30 | > 30 | – | > 30 | > 30 | > 30 |
| CCCCC[C@H](O)CC[C@@H]1[C@H]2Cc3cccc(OCC(=O)O)c3C[C@H]2C[C@H]1O [TREPROSTINIL] | > 30 | > 30 | > 30 | > 30 | > 30 | > 30 | – | > 30 | > 30 | > 30 |
| CC1=C(/C=C/C(C)=C/C=C/C(C)=C/C(=O)Oc2c(C)c(C)c3c(c2C)CCC(C)(CCCC(C)CCCC(C)CCCC(C)C)O3)C(C)(C)CCC1 (stereo not drawn) [TRETINOIN TOCOFERIL] | > 30 | > 30 | > 30 | > 30 | > 30 | > 30 | – | > 30 | > 30 | > 30 |
| CN(C)CCOCC(=O)NC12CC3CC(CC(C3)C1)C2 [TROMANTADINE] | > 30 | > 30 | > 30 | > 30 | > 30 | > 30 | – | > 30 | > 30 | > 30 |
| CCCCCCCC(=O)CC[C@@H]1[C@@H](C/C=C\CCCC(=O)O)[C@@H](O)C[C@H]1O [UNOPROSTONE] | > 30 | > 30 | > 30 | > 30 | > 30 | > 30 | – | > 30 | > 30 | > 30 |
| SITOSTEROLS | > 30 | > 30 | > 30 | > 30 | > 30 | > 30 | – | > 30 | > 30 | > 30 |
